Common to all, as to format: cell-based
Assay [1] has as its target T1, BCL-XL (Homo sapiens, UniProt Q07817).
T1 construct: BCL-XL degradation results in MOLT-4 cells for compounds of the invention; endogenous in cells; host or cells: MOLT-4
The experiment in a line: BCL-XL degradation assay in MOLT-4 cells (ELISA, 6 h). Particulars: for DC50: read-out: Bcl-xL ELISA in MOLT-4 degradation 6 h: External Abs-DC50. (In general: An ELISA detects its analyte on a solid surface through an enzyme-linked reagent.)

In assay [2] the test system is Caki-2 cells. The experiment in a line: CTG (CellTiter-Glo) cell viability assay, Caki-2. Particulars: Caki-2, 3-day, read-out: CTG Chempartner/PHA- Caki-2 3-day: Average external-IC50. The essentials:
(§1)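 Viability read by CellTiter-Glo luminescence after 3 days' compound exposure at 37 °C under 5% CO2, with 10,000 cells per well. Dosing was nine 1:3 dilutions starting at 10 µM, DMSO normalized to 0.2%; IC50 values come from three-parameter logistic curve fitting.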

For assay [3], the system named is MOLT-4 cells. The assay can be described thus: CTG (CellTiter-Glo) cell viability assay, MOLT-4. Particulars: MOLT-4, 3 day, read-out: CTG Cell Viability Assay - MOLT-4 3 day: Average external-IC50. The essentials:
as §1
A general note: Cellular ATP, detected with luciferase, serves as a proxy for viable cell number.

Each structure is given as a SMILES string. Where two headings read alike, the source gives them in different places. Some results are limits rather than exact numbers.

T1 sequence (Q07817 whole entry): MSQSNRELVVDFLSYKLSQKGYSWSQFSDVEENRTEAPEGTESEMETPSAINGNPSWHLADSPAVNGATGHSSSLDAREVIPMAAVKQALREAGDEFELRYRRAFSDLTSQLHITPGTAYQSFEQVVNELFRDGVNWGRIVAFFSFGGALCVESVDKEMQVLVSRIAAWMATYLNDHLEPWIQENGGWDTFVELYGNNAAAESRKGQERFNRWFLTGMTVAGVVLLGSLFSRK

In the case of `Cc1ncsc1-c1ccc([C@H](C)NC(=O)[C@@H]2C[C@@H](O)CN2C(=O)[C@@H](NC(=O)CCCCCC(=O)N2CCN(CCCNc3ccc(S(=O)(=O)NC(=O)c4ccc(N5CCC([C@@H](O)c6ccccc6-c6ccc(Cl)cc6)CC5)cc4Oc4cnc5[nH]ccc5c4)cc3S(=O)(=O)C(F)(F)F)CC2)C(C)(C)C)cc1` (single isomer, unassigned) [I-23], in assay [1], the Dmax (in general, the largest share of the target that was removed) was below 50% and the DC50 (usually the concentration at which degradation of the target reaches its halfway point) lay within 500 to 1000 nM. The IC50 in assay [2] (Homo sapiens, CAKI-2, 72 h) was above 30000 nM. Besides, the IC50 in assay [3] (Homo sapiens, MOLT-4, 72 h) was 100 to 1000 nM.

Consider `Cc1ncsc1-c1ccc([C@H](C)NC(=O)[C@@H]2C[C@@H](O)CN2C(=O)[C@@H](NC(=O)C2CCN(c3ccc(NC(=O)c4ccc(-c5ccc(Cl)cc5)c([C@H](O)C5CCN(c6ccc(C(=O)NS(=O)(=O)c7ccc(N[C@H](CCN(C)CCO)CSc8ccccc8)c(S(=O)(=O)C(F)(F)F)c7)cc6)CC5)c4)cc3)CC2)C(C)(C)C)cc1` (single isomer, unassigned) [I-27], for which, in assay [1], the maximal degradation (Dmax) is below 50% and the DC50 was 500 to 1000 nM. Besides, in assay [2] (Homo sapiens, CAKI-2, 72 h), the IC50 is above 30000 nM. For the same compound, in assay [3] (Homo sapiens, MOLT-4, 72 h), the IC50 was above 3000 nM.

Take `C#Cc1ccc([C@H](C)NC(=O)[C@@H]2C[C@@H](O)CN2C(=O)[C@@H](NC(=O)CCCCCC(=O)N2CCN(CC[C@H](CSc3ccccc3)Nc3ccc(S(=O)(=O)NC(=O)c4ccc(N5CCC([C@@H](O)c6ccccc6-c6ccc(Cl)cc6)CC5)cc4)cc3S(=O)(=O)C(F)(F)F)CC2)C(C)(C)C)cc1` (single isomer, unassigned) [I-29]: in assay [1], the Dmax was above 75% and the DC50 is 10 to 100 nM. In assay [2] (Homo sapiens, CAKI-2, 72 h), the IC50 fell in the range of 10000 to 30000 nM. Moreover, the IC50 in assay [3] (Homo sapiens, MOLT-4, 72 h) is 100 to 1000 nM.

Regarding `Cc1ncsc1-c1ccc([C@H](C)NC(=O)[C@@H]2C[C@@H](O)CN2C(=O)[C@@H](NC(=O)CCCCCC(=O)N2CCN(C[C@]3(C)CCC(c4ccc(Cl)cc4)=C(CN4CCN(c5ccc(C(=O)NS(=O)(=O)c6ccc(NCCCN7CCOCC7)c(S(=O)(=O)C(F)(F)F)c6)c(Oc6cnc7[nH]ccc7c6)c5)CC4)C3)CC2)C(C)(C)C)cc1` [I-132], the IC50 in assay [2] was above 30000 nM; in assay [3], 100 to 1000 nM.

Consider `COc1ccc(Oc2cc(N3CCN(CC4=C(c5ccc(Cl)cc5)CC(C)(C)CC4)CC3)ccc2C(=O)NS(=O)(=O)c2ccc(NCCCN3CCN(C(=O)CCCCCC(=O)N[C@H](C(=O)C4C[C@H](O)C[C@H]4C(=O)C[C@@H](C)c4ccc(-c5scnc5C)cc4)C(C)(C)C)CC3)c(S(=O)(=O)C(F)(F)F)c2)cc1` (stereo partly shown) [I-136], for which the IC50 is above 30000 nM in assay [2] (Homo sapiens, CAKI-2, 72 h) and 100 to 1000 nM in assay [3] (Homo sapiens, MOLT-4, 72 h).

On to `Cc1ncsc1-c1ccc([C@H](C)NC(=O)[C@@H]2C[C@@H](O)CN2C(=O)[C@@H](NC(=O)CCCCCCN2CCN(CCCNc3ccc(S(=O)(=O)NC(=O)c4ccc(N5CCN(CC6=C(c7ccc(Cl)cc7)CC(C)(C)CC6)CC5)cc4Oc4cnc5[nH]ccc5c4)cc3S(=O)(=O)C(F)(F)F)CC2)C(C)(C)C)cc1` [I-137], for which the IC50 in assay [2] (Homo sapiens, CAKI-2, 72 h) is above 30000 nM; in assay [3] (Homo sapiens, MOLT-4, 72 h) it was below 100 nM.

In the case of `C#Cc1ccc([C@H](C)NC(=O)[C@@H]2C[C@@H](O)CN2C(=O)[C@@H](NC(=O)CCCCCCC(=O)N2CCN(C[C@]3(C)CCC(c4ccc(Cl)cc4)=C(CN4CCN(c5ccc(C(=O)NS(=O)(=O)c6ccc(NCCCN7CCOCC7)c(S(=O)(=O)C(F)(F)F)c6)c(Oc6cnc7[nH]ccc7c6)c5)CC4)C3)CC2)C(C)(C)C)cc1` [I-138], the IC50 in assay [2] (Homo sapiens, CAKI-2, 72 h) lay in the range of 10000 to 30000 nM; in assay [3] (Homo sapiens, MOLT-4, 72 h), 100 to 1000 nM.

Turning to `C#Cc1ccc(C(CO)NC(=O)[C@@H]2C[C@@H](O)CN2C(=O)[C@@H](NC(=O)CCCCCCC(=O)N2CCN(C[C@]3(C)CCC(c4ccc(Cl)cc4)=C(CN4CCN(c5ccc(C(=O)NS(=O)(=O)c6ccc(NCCCN7CCOCC7)c(S(=O)(=O)C(F)(F)F)c6)c(Oc6cnc7[nH]ccc7c6)c5)CC4)C3)CC2)C(C)(C)C)cc1` (stereo partly shown) [I-139], the IC50 was above 30000 nM in assay [2] (Homo sapiens, CAKI-2, 72 h) and below 100 nM in assay [3] (Homo sapiens, MOLT-4, 72 h).

Source of the values: patent US20260092057A1, “BCL-XL/BCL-2 DEGRADERS AND USES THEREOF” (Kymera Therapeutics, Inc., priority 2022, published 2026).
